{"source": "paper PMC2631656", "about": "(Journal of medicinal chemistry, 2008)", "key": {"[1]": {"system": "PSMA^+ PC-3 PIP and PC-3 flu xenografts", "test": "PET-CT imaging, PC-3 PIP and PC-3 flu xenografts", "type": "in vivo", "conditions": "dynamic scan 94-120 min p.i., i.v."}, "[2]": {"system": "PC-3 PIP (PSMA^+) and PC-3 flu (PSMA^-) xenografts"}}, "note": "Where two headings read alike, the source gives them in different places.", "data": [{"smiles": "O=C(O)CCC(NC(=O)NC(CCCCNC(=O)c1ccc([18F])cc1)C(=O)O)C(=O)O", "note": "(stereo not drawn) [Compound [^18F]6, 2-[3-[1-carboxy-5-(4-[^18F]fluoro-benzoylamino)-pentyl]-ureido]-pentanedioic acid]", "values": [{"measurement": "uptake pattern on PET", "setting": "[1]", "value": "easily observed within PSMA^+ PIP tumor, none within flu tumor, high renal uptake and a modest degree of liver uptake"}, {"measurement": "uptake in PC-3 PIP tumor", "setting": "[2]; 30 min p.i.", "value": "8.6 ± 3.1", "unit": "% ID/g"}, {"measurement": "uptake in PC-3 flu tumor", "setting": "[2]; 30 min p.i.", "value": "0.8 ± 0.3", "unit": "% ID/g"}, {"measurement": "uptake in bladder", "setting": "[2]; 30 min p.i.", "value": "6.8 ± 3.5", "unit": "% ID/g"}, {"measurement": "uptake in blood", "setting": "[2]; 30 min p.i.", "value": "2.5 ± 1.7", "unit": "% ID/g"}, {"measurement": "uptake in heart", "setting": "[2]; 30 min p.i.", "value": "0.8 ± 0.1", "unit": "% ID/g"}, {"measurement": "uptake in kidney", "setting": "[2]; 30 min p.i.", "value": "72 ± 3", "unit": "% ID/g"}, {"measurement": "uptake in large int.", "setting": "[2]; 30 min p.i.", "value": "1.2 ± 0.8", "unit": "% ID/g"}, {"measurement": "uptake in liver", "setting": "[2]; 30 min p.i.", "value": "8.7 ± 1.8", "unit": "% ID/g"}, {"measurement": "uptake in lung", "setting": "[2]; 30 min p.i.", "value": "1.7 ± 0.3", "unit": "% ID/g"}, {"measurement": "uptake in muscle", "setting": "[2]; 30 min p.i.", "value": "2.4 ± 3.1", "unit": "% ID/g"}, {"measurement": "uptake in pancreas", "setting": "[2]; 30 min p.i.", "value": "0.8± 0.1", "unit": "% ID/g"}, {"measurement": "uptake in small int.", "setting": "[2]; 30 min p.i.", "value": "1.7 ± 0.7", "unit": "% ID/g"}, {"measurement": "uptake in spleen", "setting": "[2]; 30 min p.i.", "value": "12.7 ± 0.4", "unit": "% ID/g"}, {"measurement": "uptake in stomach", "setting": "[2]; 30 min p.i.", "value": "0.8 ± 0.1", "unit": "% ID/g"}, {"measurement": "uptake in PC-3 PIP tumor", "setting": "[2]; 60 min p.i.", "value": "6.4 ± 0.9", "unit": "% ID/g"}, {"measurement": "uptake in bladder", "setting": "[2]; 60 min p.i.", "value": "17 ± 21", "unit": "% ID/g"}, {"measurement": "uptake in heart", "setting": "[2]; 60 min p.i.", "value": "0.2 ± 0.02", "unit": "% ID/g"}, {"measurement": "uptake in kidney", "setting": "[2]; 60 min p.i.", "value": "48 ± 5", "unit": "% ID/g"}, {"measurement": "uptake in large int.", "setting": "[2]; 60 min p.i.", "value": "0.5 ± 0.1", "unit": "% ID/g"}, {"measurement": "uptake in liver", "setting": "[2]; 60 min p.i.", "value": "5.8 ± 0.6", "unit": "% ID/g"}, {"measurement": "uptake in lung", "setting": "[2]; 60 min p.i.", "value": "0.5 ± 0.1", "unit": "% ID/g"}, {"measurement": "uptake in muscle", "setting": "[2]; 60 min p.i.", "value": "0.5 ± 0.7", "unit": "% ID/g"}, {"measurement": "uptake in small int.", "setting": "[2]; 60 min p.i.", "value": "0.6 ± 0.2", "unit": "% ID/g"}, {"measurement": "uptake in spleen", "setting": "[2]; 60 min p.i.", "value": "7.2 ± 1.6", "unit": "% ID/g"}, {"measurement": "uptake in stomach", "setting": "[2]; 60 min p.i.", "value": "0.25 ± 0.1", "unit": "% ID/g"}, {"measurement": "uptake in PC-3 PIP tumor", "setting": "[2]; 2 h p.i.", "value": "3.7 ± 1.2", "unit": "% ID/g"}, {"measurement": "uptake in PC-3 flu tumor", "setting": "[2]; 2 h p.i.", "value": "0.25 ± 0.1", "unit": "% ID/g"}, {"measurement": "uptake in heart", "setting": "[2]; 2 h p.i.", "value": "0.15 ± 0.05", "unit": "% ID/g"}, {"measurement": "uptake in kidney", "setting": "[2]; 2 h p.i.", "value": "29 ± 12", "unit": "% ID/g"}, {"measurement": "uptake in large int.", "setting": "[2]; 2 h p.i.", "value": "0.2 ± 0.1", "unit": "% ID/g"}, {"measurement": "uptake in liver", "setting": "[2]; 2 h p.i.", "value": "11.7 ± 7.0", "unit": "% ID/g"}, {"measurement": "uptake in muscle", "setting": "[2]; 2 h p.i.", "value": "0.2 ± 0.1", "unit": "% ID/g"}, {"measurement": "uptake in pancreas", "setting": "[2]; 2 h p.i.", "value": "0.15 ± 0.03", "unit": "% ID/g"}, {"measurement": "uptake in spleen", "setting": "[2]; 2 h p.i.", "value": "4.4 ± 1.2", "unit": "% ID/g"}, {"measurement": "uptake in bladder", "setting": "[2]; 5 h p.i.", "value": "5.2 ± 8.9", "unit": "% ID/g"}, {"measurement": "uptake in blood", "setting": "[2]; 5 h p.i.", "value": "0.03 ± 0.00", "unit": "% ID/g"}, {"measurement": "uptake in heart", "setting": "[2]; 5 h p.i.", "value": "0.03 ± 0.01", "unit": "% ID/g"}, {"measurement": "uptake in kidney", "setting": "[2]; 5 h p.i.", "value": "14 ± 9", "unit": "% ID/g"}, {"measurement": "uptake in large int.", "setting": "[2]; 5 h p.i.", "value": "0.6 ± 0.6", "unit": "% ID/g"}, {"measurement": "uptake in pancreas", "setting": "[2]; 5 h p.i.", "value": "0.05 ± 0.03", "unit": "% ID/g"}, {"measurement": "uptake in stomach", "setting": "[2]; 5 h p.i.", "value": "0.04 ± 0.02", "unit": "% ID/g"}]}]}
